Assay results as given in patent US8653233B2, “Compositions and methods for preventing or treating cancer” (University of Nebraska Medical Center, priority 2003, dated 2014).
Where no end group is shown, it is not given here.

Tested on: Panc02.MUC1 tumor cells
Test: MUC1 cytoplasmic tail peptide vaccination and Panc02.MUC1 tumor challenge

**Q.** Which survival (MUC1.Tg mice, three s.c. vaccinations at seven day intervals, Panc02.MUC1 challenge 10 days after final, vs control peptide or nonvaccinated, p<0.05) does the source give for “CQCRRKNYGQLDIFPARDTYHPMSEYPTYH (cysteine pairing not given here) [SEQ ID NO:47]” here?
**A.** significant increase in survival

**Q.** What about the autoimmunity in organs (necropsy and histology, vaccinated MUC1.Tg mice challenged with Panc02.MUC1) of the same sequence?
**A.** no evidence of autoimmunity
